Source: patent US20260055089A1, “NOVEL SUBSTITUTED BENZOTHIOPHENE-6-CARBOXYLIC ACID DERIVATIVES, PROCESSES FOR THEIR PREPARATION AND THERAPEUTIC USES THEREOF” (SANOFI, priority 2022, published 2026)

Target: T1, ERα (Homo sapiens, UniProt P03372)
T1 construct: host or cells: MCF7
T1 sequence (P03372 1-595): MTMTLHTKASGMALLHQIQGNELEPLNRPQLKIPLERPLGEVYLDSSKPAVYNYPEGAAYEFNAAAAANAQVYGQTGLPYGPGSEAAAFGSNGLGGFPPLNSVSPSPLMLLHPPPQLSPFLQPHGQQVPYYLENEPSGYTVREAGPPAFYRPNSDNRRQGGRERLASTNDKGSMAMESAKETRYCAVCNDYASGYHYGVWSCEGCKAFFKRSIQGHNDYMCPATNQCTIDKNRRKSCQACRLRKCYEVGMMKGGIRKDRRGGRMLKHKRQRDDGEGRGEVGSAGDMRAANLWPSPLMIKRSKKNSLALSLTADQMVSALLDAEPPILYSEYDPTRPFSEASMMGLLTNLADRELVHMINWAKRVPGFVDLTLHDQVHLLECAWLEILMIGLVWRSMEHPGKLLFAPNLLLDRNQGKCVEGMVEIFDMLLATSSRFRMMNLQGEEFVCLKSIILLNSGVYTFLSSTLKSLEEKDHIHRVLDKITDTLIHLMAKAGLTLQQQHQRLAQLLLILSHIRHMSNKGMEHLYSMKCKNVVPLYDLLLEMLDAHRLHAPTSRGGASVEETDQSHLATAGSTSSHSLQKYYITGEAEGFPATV
Test: Estrogen receptor degradation activity: breast cancer cell ERα in cell western assay
Format: cell-based
Conditions: MCF7 cells; for % Degradation At 0.3 μM: 4 hours, relative to fulvestrant 0.1 μM positive control; for DC50: 4 hours post compound addition, concentration which degrades 50% of the estrogen receptor, read-out: Degradation IC50
Protocol: Test: Estrogen Receptor Degradation Activity
Said test involves measuring the in vitro degradation activity of the compounds of the table 1.
The measurements of the degradation activities were made using a breast cancer cell ERα in cell western assay as described hereunder.
MCF7 cells (ATCC) were seeded in 384 wells microplate (collagen coated) at a concentration of 10000 cells/30 μL per well in red phenol free MEM alpha medium (invitrogen) containing 5% charcoal dextran striped FBS. The following day, 9 points serial 1:5 dilution of each compound was added to the cells in 2.5 μL at final concentrations ranging from 0.3-0.0000018 μM (in table 2), or 0.1 μM for fulvestrant (using as positive control). At 4 hours post compound addition the cells were fixed by adding 25 μL of formalin (final concentration 5% formalin containing 0.1% triton) for 10 minutes at RT and then washed twice with PBS. Then, 50 μL of LI-COR blocking buffer containing 0.1% Triton was added to plate for 30 minutes at RT. LI-COR blocking buffer was removed and cells were incubated overnight at cold room with 50 μL anti-ER rabbit monoclonal antibody (Thermo scientific MA1-39540) diluted at 1:1000 in LI-COR blocking buffer containing 0.1% tween-20. Wells which were treated with blocking buffer but no antibody were used as background control. Wells were washed twice with PBS (0.1% tween-20) and incubated at 37° C. for 60 minutes in LI-COR (0.1% tween-20) containing goat anti-rabbit antibody Alexa 488 (1:1000) and Syto-64 a DNA dye (2 μM final concentration). Cells were then washed 3 times in PBS and scanned in ACUMEN explorer (TTP-Labtech). Integrated intensities in the green fluorescence and red fluorescence were measured to determine the levels of ERα and DNA respectively.
The degradation activity with respect to estrogen receptors in this test is given by the concentration which degrades 50% of the estrogen receptor (or ICso) in nM.
The % of ERα levels decrease were determined as follows: % inhibition=100*(1−(sample−fulvestrant:DMSO−fulvestrant)).

| Compound | % Degradation At 0.3 μM [%] | DC50 [nM] |
| --- | --- | --- |
| CC(F)(F)c1cc(F)ccc1-c1sc2cc(C(=O)O)ccc2c1Oc1ccc(OC2CN(CCCF)C2)cc1 [Compound 2, 2-(2-(1,1-difluoroethyl)-4-fluorophenyl)-3-(4-((1-(3-fluoropropyl)azetidin-3-yl)oxy)phenoxy)benzo[b]thiophene-6-carboxylic acid] | 93 | 0.9 |
| CC(F)(F)c1cc(F)ccc1-c1sc2cc(C(=O)O)ccc2c1Oc1ccc(O[C@H]2CCN(CCCF)C2)cc1 [Compound 3, (S)-2-(2-(1,1-difluoroethyl)-4-fluorophenyl)-3-(4-((1-(3-fluoropropyl)pyrrolidin-3-yl)oxy)phenoxy)benzo[b]thiophene-6-carboxylic acid] | 85 | 5 |
| CC(F)(F)c1cc(F)ccc1-c1sc2cc(C(=O)O)ccc2c1Oc1ccc(NC2CN(CCCF)C2)cc1.Cl [Compound 1, 2-(2-(1,1-difluoroethyl)-4-fluorophenyl)-3-(4-((1-(3-fluoropropyl)azetidin-3-yl)amino)phenoxy)benzo[b]thiophene-6-carboxylic acid, hydrochloride] | 92 | 2 |
